Measurements reported in patent publication US20240261271A1, “APPLICATION OF HYDRONIDONE IN PREPARATION OF DRUG FOR TREATING OR PREVENTING CHRONIC HEPATITIS B WITH LIVER FIBROSIS” (priority 2021, published 2024).
Several values for one entry are separate records, joined by “and”; a condition that tells them apart may be missing. Equal entries are not always repeated.

Test system: chronic hepatitis B with hepatic fibrosis
Test: Phase II clinical study: hepatic fibrosis Ishak score by liver biopsy, before and after 52 weeks of treatment on entecavir basic treatment
Type: in vivo, human
Conditions: for Ishak score 4 points, n(%) / Ishak score 5 points, n(%) / Ishak score 6 points, n(%) / Hepatic fibrosis Ishak score, Mean (SD) / Hepatic fibrosis Ishak score, Median / Ishak score 0 point, n(%) / Ishak score 1 point, n(%) / Ishak score 2 points, n(%) / Ishak score 3 points, n(%) / Progressive Ishak score (increases by ≥1 compared with the baseline) / Reversed Ishak score (decreases by ≥1 point compared with the baseline) / Stable Ishak score (unchanged compared with the baseline): 52 weeks of treatment; for Rate difference (B-C) % and 95% CI, Ishak score decreased by ≥1: 360 mg group minus 180 mg group; for Rate difference (B-C) % and 95% CI, Ishak score decreased by ≥1 / Rate difference (B-D) % and 95% CI, Ishak score decreased by ≥1 / Rate difference (A-B) % and 95% CI, Ishak score decreased by ≥1 / Rate difference (A-C) % and 95% CI, Ishak score decreased by ≥1 / Rate difference (A-D) % and 95% CI, Ishak score decreased by ≥1: 52 weeks; for Rate difference (B-D) % and 95% CI, Ishak score decreased by ≥1: 360 mg group minus 270 mg group; for Rate difference (A-C) % and 95% CI, Ishak score decreased by ≥1: placebo group minus 180 mg group; for Rate difference (A-D) % and 95% CI, Ishak score decreased by ≥1: placebo group minus 270 mg group
Procedure: This is a randomized, double-blind, placebo-controlled, multicenter, and dose-finding phase II clinical study with foundational treatment. In the clinical trial, three different dose test groups and a placebo control group were set on the basis of the entecavir capsule antiviral treatment, and the planned sample amount of each group was 60 cases, totaling 240 cases. The three dose test groups were 180 mg group, 270 mg group, and 360 mg group, respectively. […]

[1] = 270 mg group, PPS, baseline Ishak score ≥3
[2] = 270 mg group, PPS, all subjects
[3] = 270 mg group, PPS, screening period-follow-up 15 (52 weeks), baseline Ishak score ≥3
[4] = 360 mg group, FAS, 52 weeks of treatment vs baseline, all subjects
[5] = 360 mg group, FAS, all subjects
[6] = 360 mg group, FAS, baseline Ishak score ≥3
[7] = 360 mg group, FAS, screening period-follow-up 15 (52 weeks), baseline Ishak score ≥3
[8] = 360 mg group, PPS, 52 weeks of treatment vs baseline, all subjects
[9] = 360 mg group, PPS, all subjects
[10] = 360 mg group, PPS, baseline Ishak score ≥3
[11] = 360 mg group, PPS, screening period-follow-up 15 (52 weeks), baseline Ishak score ≥3
[12] = Group B/C/D combined, FAS, baseline Ishak score ≥2
[13] = Group B/C/D combined, FAS, screening period-follow-up 15 (52 weeks), baseline Ishak score ≥2
[14] = Group B/C/D combined, PPS, baseline Ishak score ≥2
[15] = Group B/C/D combined, PPS, screening period-follow-up 15 (52 weeks), baseline Ishak score ≥2

Cc1ccc(=O)n(-c2ccc(O)cc2)c1 [hydronidone]
Ishak score 4 points, n(%) [1]: 5(20.00) n(%) | Ishak score 5 points, n(%) [1]: 5(20.00) n(%) | Ishak score 6 points, n(%) [1]: 2(8.00) n(%) | Ishak score change, Baseline-52 weeks of treatment, Mean (SD) [2]: 0.91(1.15) | Ishak score change, Baseline-52 weeks of treatment, Median [2]: 1.00 | Ishak score decreased by <1, n(%) [3]: 7(28.00) n(%) | Ishak score decreased by ≥1, n(%) [3]: 18(72.00) n(%) | Rate difference (B-C) % and 95% CI, Ishak score decreased by ≥1 (FAS, all subjects): 3.43(−17.12, 23.60) % | Rate difference (B-C) % and 95% CI, Ishak score decreased by ≥1 (FAS, baseline Ishak score ≥3): 4.45(−20.88, 29.28) % | Rate difference (B-C) % and 95% CI, Ishak score decreased by ≥1 (PPS, all subjects): 5.72(−16.89, 27.53) % | Rate difference (B-C) % and 95% CI, Ishak score decreased by ≥1 (PPS, baseline Ishak score ≥3): 8.91(−17.46, 34.07) % | Rate difference (B-D) % and 95% CI, Ishak score decreased by ≥1 (FAS, all subjects): −12.20(−32.01, 9.10) % | Rate difference (B-D) % and 95% CI, Ishak score decreased by ≥1 (FAS, baseline Ishak score ≥3): −5.67(−29.01, 18.67) % | Rate difference (B-D) % and 95% CI, Ishak score decreased by ≥1 (PPS, all subjects): −12.77(−33.83, 9.98) % | Rate difference (B-D) % and 95% CI, Ishak score decreased by ≥1 (PPS, baseline Ishak score ≥3): −4.00(−27.91, 20.54) % | Ishak score decreased by <1, n(%) [4]: 23(56.10) n(%) | Ishak score decreased by ≥1, n(%) [4]: 18 (43.90%) n(%) and 18(43.90) n(%) | Hepatic fibrosis Ishak score, Mean (SD) [5]: 2.83(1.45) | Hepatic fibrosis Ishak score, Median [5]: 3.00 | Ishak score 0 point, n(%) [5]: 0(0.00) n(%) | Ishak score 1 point, n(%) [5]: 10(24.39) n(%) | Ishak score 2 points, n(%) [5]: 8(19.51) n(%) | Ishak score 3 points, n(%) [5]: 9(21.95) n(%) | Ishak score 4 points, n(%) [5]: 8(19.51) n(%) | Ishak score 5 points, n(%) [5]: 5(12.20) n(%) | Ishak score 6 points, n(%) [5]: 1(2.44) n(%) | Progressive Ishak score (increases by ≥1 compared with the baseline) [5]: 5 (12.20%) n(%) and 5(12.20) n(%) | Reversed Ishak score (decreases by ≥1 point compared with the baseline) [5]: 18(43.90) n(%) | Stable Ishak score (unchanged compared with the baseline) [5]: 18 (43.90%) n(%) and 18(43.90) n(%) | Ishak score 0 point, n(%) [6]: 0(0.00) n(%) | Ishak score 1 point, n(%) [6]: 4(13.79) n(%) | Ishak score 2 points, n(%) [6]: 4(13.79) n(%) | Ishak score 3 points, n(%) [6]: 8(27.59) n(%) | Ishak score 4 points, n(%) [6]: 7(24.14) n(%) | Ishak score 5 points, n(%) [6]: 5(17.24) n(%) | Ishak score 6 points, n(%) [6]: 1(3.45) n(%) | Ishak score change, Baseline-52 weeks of treatment, Mean (SD) [5]: 0.56(1.25) | Ishak score change, Baseline-52 weeks of treatment, Median [5]: 0.00 | Ishak score decreased by <1, n(%) [7]: 12(41.38) n(%) | Ishak score decreased by ≥1, n(%) [7]: 17(58.62) n(%) | Ishak score decreased by <1, n(%) [8]: 16(47.06) n(%) | Ishak score decreased by ≥1, n(%) [8]: 18 (52.94%) n(%) and 18(52.94) n(%) | Hepatic fibrosis Ishak score, Mean (SD) [9]: 2.82(1.49) | Hepatic fibrosis Ishak score, Median [9]: 3.00 | Ishak score 0 point, n(%) [9]: 0(0.00) n(%) | Ishak score 1 point, n(%) [9]: 9(26.47) n(%) | Ishak score 2 points, n(%) [9]: 6(17.65) n(%) | Ishak score 3 points, n(%) [9]: 7(20.59) n(%) | Ishak score 4 points, n(%) [9]: 7(20.59) n(%) | Ishak score 5 points, n(%) [9]: 4(11.76) n(%) | Ishak score 6 points, n(%) [9]: 1(2.94) n(%) | Progressive Ishak score (increases by ≥1 compared with the baseline) [9]: 5 (14.71%) n(%) and 5(14.71) n(%) | Reversed Ishak score (decreases by ≥1 point compared with the baseline) [9]: 18(52.94) n(%) | Stable Ishak score (unchanged compared with the baseline) [9]: 11 (32.35%) n(%) and 11(32.35) n(%) | Ishak score 0 point, n(%) [10]: 0(0.00) n(%) | Ishak score 1 point, n(%) [10]: 4(16.00) n(%) | Ishak score 2 points, n(%) [10]: 4(16.00) n(%) | Ishak score 3 points, n(%) [10]: 6(24.00) n(%) | Ishak score 4 points, n(%) [10]: 6(24.00) n(%) | Ishak score 5 points, n(%) [10]: 4(16.00) n(%) | Ishak score 6 points, n(%) [10]: 1(4.00) n(%) | Ishak score change, Baseline-52 weeks of treatment, Mean (SD) [9]: 0.68(1.34) | Ishak score change, Baseline-52 weeks of treatment, Median [9]: 1.00 | Ishak score decreased by <1, n(%) [11]: 8(32.00) n(%) | Ishak score decreased by ≥1, n(%) [11]: 17(68.00) n(%) | Rate difference (A-B) % and 95% CI, Ishak score decreased by ≥1 (Group A vs Group B/C/D combined, FAS, baseline Ishak score ≥2): −24.09(−40.50, −4.45) % | Rate difference (A-B) % and 95% CI, Ishak score decreased by ≥1 (Group A vs Group B/C/D combined, PPS, baseline Ishak score ≥2): −32.29(−48.91, −12.08) % | Ishak score 0 point, n(%) [12]: 5(4.95) n(%) | Ishak score 1 point, n(%) [12]: 20(19.80) n(%) | Ishak score 2 points, n(%) [12]: 17(16.83) n(%) | Ishak score 3 points, n(%) [12]: 18(17.82) n(%) | Ishak score 4 points, n(%) [12]: 17(16.83) n(%) | Ishak score 5 points, n(%) [12]: 17(16.83) n(%) | Ishak score 6 points, n(%) [12]: 7(6.93) n(%) | Ishak score decreased by <1, n(%) [13]: 43(42.57) n(%) | Ishak score decreased by ≥1, n(%) [13]: 58(57.43) n(%) | Ishak score 0 point, n(%) [14]: 5(5.75) n(%) | Ishak score 1 point, n(%) [14]: 20(22.99) n(%) | Ishak score 2 points, n(%) [14]: 12(13.79) n(%) | Ishak score 3 points, n(%) [14]: 14(16.09) n(%) | Ishak score 4 points, n(%) [14]: 16(18.39) n(%) | Ishak score 5 points, n(%) [14]: 14(16.09) n(%) | Ishak score 6 points, n(%) [14]: 6(6.90) n(%) | Ishak score decreased by <1, n(%) [15]: 29(33.33) n(%) | Ishak score decreased by ≥1, n(%) [15]: 58(66.67) n(%) | Rate difference (A-C) % and 95% CI, Ishak score decreased by ≥1 (FAS, all subjects): −14.89(−33.32, 4.99) % | Rate difference (A-C) % and 95% CI, Ishak score decreased by ≥1 (FAS, baseline Ishak score ≥3): −18.17(−42.04, 9.11) % | Rate difference (A-C) % and 95% CI, Ishak score decreased by ≥1 (PPS, all subjects): −21.03(−40.20, 0.26) % | Rate difference (A-C) % and 95% CI, Ishak score decreased by ≥1 (PPS, baseline Ishak score ≥3): −23.09(−46.75, 5.09) % | Rate difference (A-D) % and 95% CI, Ishak score decreased by ≥1 (FAS, all subjects): −30.52% and −30.52(−48.12, −9.50) % | Rate difference (A-D) % and 95% CI, Ishak score decreased by ≥1 (FAS, baseline Ishak score ≥3): −28.29(−50.04, −1.45) % | Rate difference (A-D) % and 95% CI, Ishak score decreased by ≥1 (PPS, all subjects): −39.52% and −39.52(−56.83, −17.26) % | Rate difference (A-D) % and 95% CI, Ishak score decreased by ≥1 (PPS, baseline Ishak score ≥3): −36.00(−56.89, −8.38) % | Rate difference (A-B) % and 95% CI, Ishak score decreased by ≥1 (placebo group minus 360 mg group, FAS, all subjects): −18.32(−36.76, 1.96) % | Rate difference (A-B) % and 95% CI, Ishak score decreased by ≥1 (placebo group minus 360 mg group, FAS, baseline Ishak score ≥3): −22.62(−44.98, 3.82) % | Rate difference (A-B) % and 95% CI, Ishak score decreased by ≥1 (placebo group minus 360 mg group, PPS, all subjects): −26.75% and −26.75(−45.78, −4.75) % | Rate difference (A-B) % and 95% CI, Ishak score decreased by ≥1 (placebo group minus 360 mg group, PPS, baseline Ishak score ≥3): −32.00(−53.61, −4.37) % | Rate difference (A-B) % and 95% CI, Ishak score decreased by ≥1 (placebo group vs 270 mg group + 360 mg group, FAS, baseline Ishak score = 6): −65.00(−87.03, −10.74) % | Rate difference (A-B) % and 95% CI, Ishak score decreased by ≥1 (placebo group vs 270 mg group + 360 mg group, FAS, baseline Ishak score ≥3): −25.40(−44.93, −2.00) % | Rate difference (A-B) % and 95% CI, Ishak score decreased by ≥1 (placebo group vs 270 mg group + 360 mg group, FAS, baseline Ishak score ≥4): −23.80(−46.21, 2.59) % | Rate difference (A-B) % and 95% CI, Ishak score decreased by ≥1 (placebo group vs 270 mg group + 360 mg group, FAS, baseline Ishak score ≥5): −15.38(−42.13, 13.79) % | Rate difference (A-B) % and 95% CI, Ishak score decreased by ≥1 (placebo group vs 270 mg group + 360 mg group, PPS, baseline Ishak score = 6): −65.00(−87.03, −10.74) % | Rate difference (A-B) % and 95% CI, Ishak score decreased by ≥1 (placebo group vs 270 mg group + 360 mg group, PPS, baseline Ishak score ≥3): −34.00(−53.15, −10.15) % | Rate difference (A-B) % and 95% CI, Ishak score decreased by ≥1 (placebo group vs 270 mg group + 360 mg group, PPS, baseline Ishak score ≥4): −30.06(−51.94, −3.18) % | Rate difference (A-B) % and 95% CI, Ishak score decreased by ≥1 (placebo group vs 270 mg group + 360 mg group, PPS, baseline Ishak score ≥5): −20.83(−47.05, 8.90) %
